Reference: publication PMC5218480 (PLoS ONE, 2017)

System: MV-4-11 cells
Assay: Gene expression microarray analysis (Affymetrix PrimeView) and GSEA
Assay type: cell-based, human
Parameters: RFU PODN (11730768_x_at) / Fold change /veh PODN (11730768_x_at) / RFU LINC00158 (11744669_a_at) / Fold change /veh LINC00158 (11744669_a_at) / RFU DUSP10 (11751237_a_at) / Fold change /veh DUSP10 (11751237_a_at) / RFU ID3 (11757404_x_at) / Fold change /veh ID3 (11757404_x_at) / RFU PLEKHG5 (11737974_s_at) / Fold change /veh PLEKHG5 (11737974_s_at) / RFU LRRC4B (11730491_at) / Fold change /veh LRRC4B (11730491_at) / RFU GIMAP4 (11747438_a_at) / Fold change /veh GIMAP4 (11747438_a_at) / RFU KRT8 (11758183_x_at) / Fold change /veh KRT8 (11758183_x_at) / RFU CNN1 (11734310_a_at) / Fold change /veh CNN1 (11734310_a_at) / RFU VPS37D (11726825_at) / Fold change /veh VPS37D (11726825_at) / RFU C10orf10 (11716522_x_at) / Fold change /veh C10orf10 (11716522_x_at) / RFU KIR2DL2 /// KIR2DL4 /// KIR2DL5A /// KIR2DL5B /// KIR2DS1 /// KIR2DS2 /// KIR2DS3 /// KIR2DS4 /// KIR3DL3 /// KIR3DL3 /// KIR3DS1 (11738374_at) / Fold change /veh KIR2DL2 /// KIR2DL4 /// KIR2DL5A /// KIR2DL5B /// KIR2DS1 /// KIR2DS2 /// KIR2DS3 /// KIR2DS4 /// KIR3DL3 /// KIR3DL3 /// KIR3DS1 (11738374_at) / RFU C1QL1 (11718748_at) / Fold change /veh C1QL1 (11718748_at) / RFU TMPRSS4 (11747572_a_at) / Fold change /veh TMPRSS4 (11747572_a_at) / RFU HAMP (11756126_x_at) / Fold change /veh HAMP (11756126_x_at) / RFU RNFT2 (11725882_a_at) / Fold change /veh RNFT2 (11725882_a_at) / RFU NR4A2 (11747474_a_at) / Fold change /veh NR4A2 (11747474_a_at) / RFU ABCC12 (11746883_a_at) / Fold change /veh ABCC12 (11746883_a_at) / RFU TMEM136 (11760407_x_at) / Fold change /veh TMEM136 (11760407_x_at) / RFU CLDN22 /// WWC2 (11732394_at) / Fold change /veh CLDN22 /// WWC2 (11732394_at) / RFU HLA-DPB1 (11760878_x_at) / Fold change /veh HLA-DPB1 (11760878_x_at) / RFU SPINT1 (11716480_a_at) / Fold change /veh SPINT1 (11716480_a_at) / RFU GAP43 (11754022_s_at) / Fold change /veh GAP43 (11754022_s_at) / RFU A4GNT (11735810_at) / Fold change /veh A4GNT (11735810_at) / RFU PRB3 (11715151_x_at) / Fold change /veh PRB3 (11715151_x_at) / RFU TUBB4B (11761932_at) / Fold change /veh TUBB4B (11761932_at) / RFU CAPN14 (11732068_a_at) / Fold change /veh CAPN14 (11732068_a_at) / RFU TMCC2 (11721928_a_at) / Fold change /veh TMCC2 (11721928_a_at) / RFU IRGQ (11745062_a_at) / Fold change /veh IRGQ (11745062_a_at) / RFU FAM174B (11720279_a_at) / Fold change /veh FAM174B (11720279_a_at) / RFU TMPRSS4 (11748680_a_at) / Fold change /veh TMPRSS4 (11748680_a_at) / RFU FAM212B (11763350_a_at) / Fold change /veh FAM212B (11763350_a_at) / RFU PLEKHG5 (11743358_a_at) / Fold change /veh PLEKHG5 (11743358_a_at) / RFU ZSCAN30 (11745921_a_at) / Fold change /veh ZSCAN30 (11745921_a_at) / RFU CMKLR1 (11741424_a_at) / Fold change /veh CMKLR1 (11741424_a_at) / RFU LOC101060620 /// MAPK8IP1 (11723275_at) / Fold change /veh LOC101060620 /// MAPK8IP1 (11723275_at) / RFU SPTSSB (11747773_x_at) / Fold change /veh SPTSSB (11747773_x_at) / RFU PRSS12 (11739890_at) / Fold change /veh PRSS12 (11739890_at) / RFU BIN1 (11741810_x_at) / Fold change /veh BIN1 (11741810_x_at) / RFU WNT11 (11732464_a_at) / Fold change /veh WNT11 (11732464_a_at) / RFU C10orf10 (11716521_a_at) / Fold change /veh C10orf10 (11716521_a_at) / RFU C5orf56 (11738089_at) / Fold change /veh C5orf56 (11738089_at) / RFU CYB561 (11721691_x_at) / Fold change /veh CYB561 (11721691_x_at) / RFU ANKRD19P (11752326_a_at) / Fold change /veh ANKRD19P (11752326_a_at) / RFU OR2T12 /// OR2T33 /// OR2T8 (11738714_s_at) / Fold change /veh OR2T12 /// OR2T33 /// OR2T8 (11738714_s_at) / RFU VCAN (11748164_a_at) / Fold change /veh VCAN (11748164_a_at) / RFU JSRP1 (11732532_at) / Fold change /veh JSRP1 (11732532_at) / RFU KRTAP10-11 (11738290_x_at) / Fold change /veh KRTAP10-11 (11738290_x_at) / RFU MYO3A (11730013_a_at) / Fold change /veh MYO3A (11730013_a_at) / RFU EBF3 (11725865_a_at) / Fold change /veh EBF3 (11725865_a_at) / RFU CAMK2N1 (11719241_x_at) / Fold change /veh CAMK2N1 (11719241_x_at) / RFU C5orf56 (11738088_a_at) / Fold change /veh C5orf56 (11738088_a_at) / RFU OLFML3 (11715873_a_at) / Fold change /veh OLFML3 (11715873_a_at) / RFU LOC100653217 /// NTM (11731650_a_at) / Fold change /veh LOC100653217 /// NTM (11731650_a_at) / RFU MAPK11 (11762145_a_at) / Fold change /veh MAPK11 (11762145_a_at) / RFU FIZ1 (11724087_x_at) / Fold change /veh FIZ1 (11724087_x_at) / RFU OASL (11726364_x_at) / Fold change /veh OASL (11726364_x_at) / RFU SOX15 (11748057_x_at) / Fold change /veh SOX15 (11748057_x_at) / RFU CD79A (11719716_a_at) / Fold change /veh CD79A (11719716_a_at) / RFU HIST1H1D (11736915_at) / Fold change /veh HIST1H1D (11736915_at) / RFU CASKIN2 (11723855_a_at) / Fold change /veh CASKIN2 (11723855_a_at) / RFU LOC730098 (11760151_x_at) / Fold change /veh LOC730098 (11760151_x_at) / RFU OR4N2 (11742367_at) / Fold change /veh OR4N2 (11742367_at) / RFU PRRT2 (11749266_a_at) / Fold change /veh PRRT2 (11749266_a_at) / RFU SNX32 (11753110_a_at) / Fold change /veh SNX32 (11753110_a_at) / RFU CDHR5 (11726645_a_at) / Fold change /veh CDHR5 (11726645_a_at) / RFU RCAN1 (11760418_a_at) / Fold change /veh RCAN1 (11760418_a_at) / RFU FAM167A (11723789_a_at) / Fold change /veh FAM167A (11723789_a_at) / RFU FAM26E (11764081_at) / Fold change /veh FAM26E (11764081_at) / RFU ISYNA1 (11749810_s_at) / Fold change /veh ISYNA1 (11749810_s_at) / RFU ACY1 (11761880_at) / Fold change /veh ACY1 (11761880_at) / RFU 11764098_at / Fold change /veh 11764098_at / RFU SAMD14 (11745864_x_at) / Fold change /veh SAMD14 (11745864_x_at) / RFU NPB (11741838_a_at) / Fold change /veh NPB (11741838_a_at) / RFU TMPRSS6 (11731388_a_at) / Fold change /veh TMPRSS6 (11731388_a_at) / RFU KRTAP10-2 (11738614_at) / Fold change /veh KRTAP10-2 (11738614_at) / RFU ARHGAP8 /// PRR5-ARHGAP8 (11727945_x_at) / Fold change /veh ARHGAP8 /// PRR5-ARHGAP8 (11727945_x_at) / RFU KRTAP5-7 /// NADSYN1 (11734609_at) / Fold change /veh KRTAP5-7 /// NADSYN1 (11734609_at) / RFU RASL12 (11751679_a_at) / Fold change /veh RASL12 (11751679_a_at) / RFU CDKN2B (11736163_a_at) / Fold change /veh CDKN2B (11736163_a_at) / RFU PRF1 (11729649_at) / Fold change /veh PRF1 (11729649_at) / RFU, ZNF638 /// ZNF638-IT1 / Fold change vs veh, ZNF638 /// ZNF638-IT1 / RFU, PANK3 / Fold change vs veh, PANK3 / RFU, SH3YL1 / Fold change vs veh, SH3YL1 / RFU, ZEB2 / Fold change vs veh, ZEB2 / RFU, NRIP1 / Fold change vs veh, NRIP1 / RFU, PTTG1IP / Fold change vs veh, PTTG1IP / RFU, CAPN2 / Fold change vs veh, CAPN2 / RFU, MED14 / Fold change vs veh, MED14 / RFU, SNORA58 / Fold change vs veh, SNORA58 / RFU, C1orf63 / Fold change vs veh, C1orf63 / RFU, LRRFIP1 / Fold change vs veh, LRRFIP1 / RFU, NDUFAF7 / Fold change vs veh, NDUFAF7 / RFU, SLC12A2 / Fold change vs veh, SLC12A2 / RFU, IBTK / Fold change vs veh, IBTK / RFU, ESF1 / Fold change vs veh, ESF1 / Fold change vs veh, TMEM50B / RFU, TAOK1 / Fold change vs veh, TAOK1 / RFU, ACBD3 / Fold change vs veh, ACBD3 / RFU, TMA16 / Fold change vs veh, TMA16 / RFU, RWDD3 / Fold change vs veh, RWDD3 / RFU, BCAT1 / Fold change vs veh, BCAT1 / RFU, EDEM3 / Fold change vs veh, EDEM3 / RFU, TMEM33 / Fold change vs veh, TMEM33 / RFU, WDR75 / Fold change vs veh, WDR75 / RFU, AHCTF1 / Fold change vs veh, AHCTF1 / RFU, TFRC / Fold change vs veh, TFRC / RFU, ZDHHC17 / Fold change vs veh, ZDHHC17 / RFU, NOM1 / Fold change vs veh, NOM1 / RFU, ARL8B / Fold change vs veh, ARL8B / RFU, ZBTB11 / Fold change vs veh, ZBTB11 / RFU, TAMM41 / Fold change vs veh, TAMM41 / RFU, KIAA1704 /// LOC100996395 / Fold change vs veh, KIAA1704 /// LOC100996395 / RFU, ING1 / Fold change vs veh, ING1 / RFU, TRMT61B / Fold change vs veh, TRMT61B / RFU, FUBP3 / Fold change vs veh, FUBP3 / RFU, TP53 / Fold change vs veh, TP53 / RFU, TNKS2 / Fold change vs veh, TNKS2 / RFU, ZFP14 / Fold change vs veh, ZFP14 / RFU, ACTR2 / Fold change vs veh, ACTR2 / RFU, PPP3R1 / Fold change vs veh, PPP3R1 / RFU, PIK3R1 / Fold change vs veh, PIK3R1 / RFU, HNRNPA1 / Fold change vs veh, HNRNPA1 / RFU, RNF170 / Fold change vs veh, RNF170 / RFU, ZNF28 / Fold change vs veh, ZNF28 / RFU, RNGTT / Fold change vs veh, RNGTT / RFU, OGT / Fold change vs veh, OGT / RFU, BRD1 / Fold change vs veh, BRD1 / RFU, MARS / Fold change vs veh, MARS / RFU, ZNF655 / Fold change vs veh, ZNF655 / RFU, FAHD1 / Fold change vs veh, FAHD1 / RFU, BDP1 / Fold change vs veh, BDP1 / RFU, LRRCC1 / Fold change vs veh, LRRCC1 / RFU, ARID1A / Fold change vs veh, ARID1A / RFU, ZNF146 / Fold change vs veh, ZNF146 / RFU, ZNF330 / Fold change vs veh, ZNF330 / RFU, GPN3 / Fold change vs veh, GPN3 / RFU, C9orf123 / Fold change vs veh, C9orf123 / RFU, N4BP2L2 / Fold change vs veh, N4BP2L2 / RFU, ARFIP1 / Fold change vs veh, ARFIP1 / RFU, FAM179B / Fold change vs veh, FAM179B / RFU, BCL10 / Fold change vs veh, BCL10 / RFU, UHRF1BP1L / Fold change vs veh, UHRF1BP1L / RFU, BET1 / Fold change vs veh, BET1 / RFU, CNOT2 / Fold change vs veh, CNOT2 / RFU, ZNF268 / Fold change vs veh, ZNF268 / Fold change vs veh, ZNF507 / RFU, DGCR2 / Fold change vs veh, DGCR2 / RFU, WDSUB1 / Fold change vs veh, WDSUB1 / Fold change vs veh, HSP90B1 /// MIR3652 / RFU, ADSS / Fold change vs veh, ADSS / RFU, GK / Fold change vs veh, GK / RFU, ZNF148 / Fold change vs veh, ZNF148 / RFU, TAF9 / Fold change vs veh, TAF9 / RFU, SLC1A5 / Fold change vs veh, SLC1A5 / RFU, SLMO2 / Fold change vs veh, SLMO2 / RFU, ABCC4 / Fold change vs veh, ABCC4 / RFU, LOC101060439 /// RAP1B / Fold change vs veh, LOC101060439 /// RAP1B / RFU, RFX7 / Fold change vs veh, RFX7 / RFU, GTPBP10 / Fold change vs veh, GTPBP10 / RFU, CNEP1R1 / Fold change vs veh, CNEP1R1 / RFU, BIVM-ERCC5 /// ERCC5 / Fold change vs veh, BIVM-ERCC5 /// ERCC5 / RFU, ILF3 / Fold change vs veh, ILF3 / RFU 11762660_at / Fold change /veh 11762660_at / RFU VCAN (11757783_s_at) / Fold change /veh VCAN (11757783_s_at) / RFU DDX43 (11728927_at) / Fold change /veh DDX43 (11728927_at) / RFU KRT8 (11758188_x_at) / Fold change /veh KRT8 (11758188_x_at) / RFU NKD1 (11759106_at) / Fold change /veh NKD1 (11759106_at) / RFU SRD5A1 (11742802_a_at) / Fold change /veh SRD5A1 (11742802_a_at) / RFU TPSAB1 /// TPSB2 (11721975_s_at) / Fold change /veh TPSAB1 /// TPSB2 (11721975_s_at) / RFU GSTM3 (11746129_a_at) / Fold change /veh GSTM3 (11746129_a_at) / RFU IL23R (11737362_x_at) / Fold change /veh IL23R (11737362_x_at) / RFU TMEM51 (11727254_a_at) / Fold change /veh TMEM51 (11727254_a_at) / RFU PIWIL2 (11732686_x_at) / Fold change /veh PIWIL2 (11732686_x_at) / RFU ORM1 (11744905_x_at) / Fold change /veh ORM1 (11744905_x_at) / RFU CCDC152 (11743942_at) / Fold change /veh CCDC152 (11743942_at) / RFU ECM1 (11717891_a_at) / Fold change /veh ECM1 (11717891_a_at) / RFU IL23R (11748794_a_at) / Fold change /veh IL23R (11748794_a_at) / RFU TNFAIP8L3 (11732012_x_at) / Fold change /veh TNFAIP8L3 (11732012_x_at) / RFU MBOAT4 (11741988_at) / Fold change /veh MBOAT4 (11741988_at) / RFU 11764193_at / Fold change /veh 11764193_at / RFU TMEM53 (11763286_at) / Fold change /veh TMEM53 (11763286_at) / RFU MAGEB2 (11727129_at) / Fold change /veh MAGEB2 (11727129_at) / RFU TMEM200A (11744735_a_at) / Fold change /veh TMEM200A (11744735_a_at) / RFU CCDC152 (11751479_a_at) / Fold change /veh CCDC152 (11751479_a_at) / RFU FAM211A (11726209_a_at) / Fold change /veh FAM211A (11726209_a_at) / RFU RGS16 (11746705_a_at) / Fold change /veh RGS16 (11746705_a_at) / RFU VCAN (11755009_s_at) / Fold change /veh VCAN (11755009_s_at) / RFU RHOB (11743442_s_at) / Fold change /veh RHOB (11743442_s_at) / RFU RGS16 (11720943_a_at) / Fold change /veh RGS16 (11720943_a_at) / RFU RGS16 (11720944_at) / Fold change /veh RGS16 (11720944_at) / RFU, VPS4B / Fold change vs veh, VPS4B / RFU, CREB1 / Fold change vs veh, CREB1 / RFU, DNAJC13 / Fold change vs veh, DNAJC13 / RFU, GNAQ / Fold change vs veh, GNAQ / RFU, CDK5R1 / Fold change vs veh, CDK5R1 / RFU, ZRANB3 / Fold change vs veh, ZRANB3 / RFU, CUL4A / Fold change vs veh, CUL4A / RFU, CCNY / Fold change vs veh, CCNY / RFU, UFL1 / Fold change vs veh, UFL1 / RFU, COG3 / Fold change vs veh, COG3 / RFU, DIAPH2 / Fold change vs veh, DIAPH2 / RFU, SKA2 / Fold change vs veh, SKA2 / RFU, AFF3 / Fold change vs veh, AFF3 / RFU, LMF1 / Fold change vs veh, LMF1 / RFU, IPO11 / Fold change vs veh, IPO11 / RFU, DFFB / Fold change vs veh, DFFB / RFU, FOXP1 / Fold change vs veh, FOXP1 / RFU, CARD8 / Fold change vs veh, CARD8 / RFU, STRN3 / Fold change vs veh, STRN3 / RFU, ADK / Fold change vs veh, ADK / RFU, RASSF2 / Fold change vs veh, RASSF2 / RFU, WIPF1 / Fold change vs veh, WIPF1 / RFU, LARP1B / Fold change vs veh, LARP1B / RFU, RASA1 / Fold change vs veh, RASA1 / RFU, RB1 / Fold change vs veh, RB1 / RFU, PPFIA1 / Fold change vs veh, PPFIA1 / RFU, MAT2A / Fold change vs veh, MAT2A / RFU, CCT5 / Fold change vs veh, CCT5 / RFU, WDR92 / Fold change vs veh, WDR92 / RFU, CUX1 / Fold change vs veh, CUX1 / RFU, TTC7A / Fold change vs veh, TTC7A / RFU, TMEM135 / Fold change vs veh, TMEM135 / RFU, DEPTOR / Fold change vs veh, DEPTOR / RFU, CPM / Fold change vs veh, CPM / RFU, DNAJB6 / Fold change vs veh, DNAJB6 / RFU, CACNA2D3 / Fold change vs veh, CACNA2D3 / RFU, DTX4 / Fold change vs veh, DTX4 / RFU, TFCP2 / Fold change vs veh, TFCP2 / RFU, GMCL1 /// GMCL1P1 / Fold change vs veh, GMCL1 /// GMCL1P1 / RFU, AEBP2 / Fold change vs veh, AEBP2 / RFU, SNHG1 /// SNORD22 /// SNORD25 /// SNORD26 /// SNORD27 /// SNORD28 /// SNORD29 /// SNORD31 / Fold change vs veh, SNHG1 /// SNORD22 /// SNORD25 /// SNORD26 /// SNORD27 /// SNORD28 /// SNORD29 /// SNORD31 / Fold change (Aza/veh), C12orf56 (ProbeSet 11735607_a_at) / Fold change (ACY-1035/veh), C12orf56 (ProbeSet 11735607_a_at) / Fold change (Aza/veh), FGFR1OP (ProbeSet 11751329_s_at) / Fold change (ACY-1035/veh), FGFR1OP (ProbeSet 11751329_s_at) / Fold change (Aza/veh), VPS36 (ProbeSet 11739960_a_at) / Fold change (ACY-1035/veh), VPS36 (ProbeSet 11739960_a_at) / RFU SYPL1 (11715823_x_at) / Fold change /veh SYPL1 (11715823_x_at) / RFU IGFBP7 (11715501_s_at) / Fold change /veh IGFBP7 (11715501_s_at) / RFU REEP3 (11722064_at) / Fold change /veh REEP3 (11722064_at) / RFU IGLL1 (11728026_x_at) / Fold change /veh IGLL1 (11728026_x_at): dose or concentration left out as unconfirmed
Conditions: ProbeSet 11720270_a_at; LIST B

In the case of `Nc1ccc(-c2cccs2)cc1NC(=O)c1ccc2c(c1)cc(C1CC1)n2CCN1CCOCC1` [ACY-1035], the “RFU, IBTK” value is reported as 373.26 RFU.
